This passage reports IC50 results from patent US10287301B2 (Achillion Pharmaceuticals, Inc., priority 2015, dated 2019).

Counter-ions that a name gives are not always drawn. Like-named read-outs stand apart in the source and are kept apart here.

The target in this test is Human Factor D (Homo sapiens (Human), UniProt P00746). Description: Human Factor D Assay. It is filed as biochemical. In short, it runs like this: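 Thioesterase activity monitored with Z-L-Lys-SBzl plus Ellman's reagent (DTNB), each 100 μM final, after 5 min room-temperature compound preincubation of 80 nM human serum Factor D in pH 7.5 Tris (50 mM)/1M NaCl.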
Chain of Human Factor D (P00746 26-253): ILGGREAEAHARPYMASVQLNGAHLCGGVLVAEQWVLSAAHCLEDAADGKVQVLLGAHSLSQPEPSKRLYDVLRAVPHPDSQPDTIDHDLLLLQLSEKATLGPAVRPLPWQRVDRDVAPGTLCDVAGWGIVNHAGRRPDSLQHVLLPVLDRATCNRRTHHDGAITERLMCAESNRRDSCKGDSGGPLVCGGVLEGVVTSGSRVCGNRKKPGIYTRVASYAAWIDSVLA
Setting [1] is: Human Factor D 80 nM, substrate Z-L-Lys-SBzl, read-out: IC50.
Where [2] appears, read: Human Factor D, Table 3, read-out: IC50.
The mark [3] stands for this setting: Table 3, Human Factor D 80 nM, substrate Z-L-Lys-SBzl, read-out: IC50 (Stars).
The mark [4] stands for this setting: Human Factor D assay of Example 8, Table 2, read-out: IC50.

For the compound `CC(=O)c1cn(CC(=O)N2C[C@H](F)C[C@H]2C(=O)Nc2cncc(Br)c2)c2ccc(-c3ccnnc3)cc12` [Compound 68, (2S,4R)-1-(2-(3-acetyl-5-(pyridazin-4-yl)-1H-indol-1-yl)acetyl)-N-(5-bromopyridin-3-yl)-4-fluoropyrrolidine-2-carboxamide], the 50% inhibitory concentration (IC50) under setting [1] is below 1 µM. For the compound `CC(=O)c1nn(CC(=O)N2C[C@H](F)C[C@H]2C(=O)Nc2cccc(Br)n2)c2ccc(-c3cnc(=O)n(C)c3)cc12` [Compound 702, (2S,4R)-1-(2-(3-Acetyl-5-(1-methyl-2-oxo-1,2-dihydropyrimidin-5-yl)-1H-indazol-1-yl)acetyl)-N-(6-bromopyridin-2-yl)-4-fluoropyrrolidine-2-carboxamide], the IC50 under setting [2] was below 1 µM. Regarding `Cc1cccc(NC(=O)[C@@H]2[C@H]3CC[C@H](C3)N2C(=O)Cn2cc(C(N)=O)c3cc(-c4ccc5c(c4)CCCC5)ccc32)n1` [Compound 515, 1-(2-((1R,3S,4S)-3-(6-Methylpyridin-2-ylcarbamoyl)-2-azabicyclo[2.2.1]heptan-2-yl)-2-oxoethyl)-5-(5,6,7,8-tetrahydronaphthalen-2-yl)-1H-indole-3-carboxamide], the concentration for half-maximal inhibition (IC50) under setting [3] was above 10 µM. With `CO[C@@H]1CO[C@H]2[C@@H]1OC[C@H]2Oc1ncc(-c2ccc3c(c2)c(C(C)=O)cn3CC(=O)N2C[C@H](F)C[C@H]2C(=O)Nc2cccc(-c3ccccc3Cl)c2F)cn1` [Compound 335], the half-maximal inhibitory concentration (IC50) under setting [3] was below 1 µM. Still for that read-out and setting: to `CC(=O)c1nn(CC(=O)N2[C@H]3C[C@@]3(C)C[C@H]2C(=O)Nc2cccc(Br)n2)c2ccc(-c3cnc(C)nc3)cc12` [Compound 382, (1S,3S,5S)-2-(2-(3-Acetyl-5-(2-methylpyrimidin-5-yl)-1H-indazol-1-yl)acetyl)-N-(6-bromopyridin-2-yl)-5-methyl-2-azabicyclo[3.1.0]hexane-3-carboxamide] belongs below 1 µM. Turning to `CC(=O)c1cn(CC(=O)N2C[C@H](F)C[C@H]2C(=O)NCCCCc2ccccc2)c2ccc(-c3cnc4cc(C)nn4c3)cc12` [Compound 688, (2S,4R)-1-(2-(3-Acetyl-5-(2-methylpyrazolo[1,5-a]pyrimidin-6-yl)-1H-indol-1-yl)acetyl)-4-fluoro-N-(4-phenylbutyl)pyrrolidine-2-carboxamide], under setting [2], the half-inhibitory concentration (IC50) is below 1 µM.

Consider `CCN1Cc2ccc(NC(=O)[C@@H]3C[C@@H](F)CN3C(=O)Cn3cc(C(C)=O)c4cc(-c5ccnnc5)ccc43)cc2C1=O` [Compound 49, (2S,4R)-1-(2-(3-acetyl-5-(pyridazin-4-yl)-1H-indol-1-yl)acetyl)-N-(2-ethyl-3-oxoisoindolin-5-yl)-4-fluoropyrrolidine-2-carboxamide], for which the IC50 lay within 1 to 10 µM.

Take `CC(=O)c1nn(CC(=O)N2C[C@H](F)C[C@H]2C(=O)Nc2nn(CC(F)(F)F)cc2Br)c2ccc(-c3cnc(C)nc3)cc12` [Compound 420, (2S,4R)-1-(2-(3-Acetyl-5-(2-methylpyrimidin-5-yl)-1H-indazol-1-yl)acetyl)-N-(4-bromo-1-(2,2,2-trifluoroethyl)-1H-pyrazol-3-yl)-4-fluoropyrrolidine-2-carboxamide]: the half-inhibitory concentration (IC50) under setting [3] is below 1 µM.

Take `CC(=O)c1nn(CC(=O)N2[C@H](C(=O)Nc3nc(Br)ccc3C)C[C@@H]3C[C@@H]32)c2ccc(-c3cnc(C)nc3)cc12` [Compound 647, (1S,3S,5S)-2-(2-(3-Acetyl-5-(2-methylpyrimidin-5-yl)-1H-indazol-1-yl)acetyl)-N-(6-bromo-3-methylpyridin-2-yl)-2-azabicyclo[3.1.0]hexane-3-carboxamide]: under setting [2], the IC50 is below 1 µM. `CC(=O)c1nn(CC(=O)N2C[C@H](F)C[C@H]2C(=O)Nc2cccc(Br)n2)c2ccc(-c3cnc(CN)nc3)cc12` [Compound 404, (2S,4R)-1-(2-(3-Acetyl-5-(2-(aminomethyl)pyrimidin-5-yl)-1H-indazol-1-yl)acetyl)-N-(6-bromopyridin-2-yl)-4-fluoropyrrolidine-2-carboxamide hydrochloride]: under setting [3], the half-inhibitory concentration (IC50) was below 1 µM. Consider `CC(=O)c1nn(CC(=O)N2C[C@H](F)C[C@H]2C(=O)Nc2cccc(Br)n2)c2ccc(-c3cnc4cc(C(F)(F)F)nn4c3)cc12` [Compound 684, (2S,4R)-1-(2-(3-Acetyl-5-(2-(trifluoromethyl)pyrazolo[1,5-a]pyrimidin-6-yl)-1H-indazol-1-yl)acetyl)-N-(6-bromopyridin-2-yl)-4-fluoropyrrolidine-2-carboxamide], for which the IC50 under setting [2] was below 1 µM.

For the compound `CC(=O)c1nn(CC(=O)N2C[C@H](F)C[C@H]2C(=O)Nc2cccc(OC(F)(F)F)n2)c2ccc(-c3cnc4cc(C5CC5)nn4c3)cc12` [Compound 672, (2S,4R)-1-(2-(3-Acetyl-5-(2-cyclopropylpyrazolo[1,5-a]pyrimidin-6-yl)-1H-indazol-1-yl)acetyl)-4-fluoro-N-(6-(trifluoromethoxy)pyridin-2-yl)pyrrolidine-2-carboxamide], under setting [2], the IC50 is below 1 µM. On to `CC(=O)c1nn(CC(=O)N2C[C@H](F)C[C@H]2C(=O)Nc2ncc(F)cc2Br)c2ccc(-c3cnc(C)nc3)cc12` [Compound 408, (2S,4R)-1-(2-(3-Acetyl-5-(2-methylpyrimidin-5-yl)-1H-indazol-1-yl)acetyl)-N-(3-bromo-5-fluoropyridin-2-yl)-4-fluoropyrrolidine-2-carboxamide], for which the IC50 under setting [3] was below 1 µM. Same read-out and setting: to `CC(=O)c1nn(CC(=O)N2C[C@H](F)C[C@H]2C(=O)Nc2cc(C)cc(Br)n2)c2ccc(-c3cnc(C)nc3)cc12` [Compound 345, (2S,4R)-1-(2-(3-Acetyl-5-(2-methylpyrimidin-5-yl)-1H-indazol-1-yl)acetyl)-N-(6-bromo-4-methylpyridin-2-yl)-4-fluoropyrrolidine-2-carboxamide] belongs below 1 µM.

Consider `COc1ncc(-c2ccc3c(c2)c(C(C)=O)cn3CC(=O)N2C[C@H](F)C[C@H]2C(=O)Nc2cccc(Br)n2)cn1` [Compound 21, (2S,4R)-1-(2-(3-acetyl-5-(2-methoxypyrimidin-5-yl)-1H-indol-1-yl)acetyl)-N-(6-bromopyridin-2-yl)-4-fluoropyrrolidine-2-carboxamide], for which the IC50 under setting [1] was below 1 µM.

For `CC(=O)c1nn(CC(=O)N2C[C@H](F)C[C@H]2C(=O)Nc2cccc(Br)n2)c2ccc(-c3cnc(S(C)(=O)=O)nc3)cc12` [Compound 521, (2S,4R)-1-(2-(3-Acetyl-5-(2-(methylsulfonyl)pyrimidin-5-yl)-1H-indazol-1-yl)acetyl)-N-(6-bromopyridin-2-yl)-4-fluoropyrrolidine-2-carboxamide], the IC50 under setting [3] was below 1 µM. On the same count and under the same terms, in the case of `COc1cc(Br)nc(NC(=O)[C@@H]2C[C@@H](F)CN2C(=O)Cn2nc(C(C)=O)c3cc(-c4cnc(OC)nc4)ccc32)c1` [Compound 431, (2S,4R)-1-(2-(3-Acetyl-5-(2-methoxypyrimidin-5-yl)-1H-indazol-1-yl)acetyl)-N-(6-bromo-4-methoxypyridin-2-yl)-4-fluoropyrrolidine-2-carboxamide] it was below 1 µM. As to `CC(=O)c1nn(CC(=O)N2[C@H](C(=O)Nc3cccc(OC(F)(F)F)c3F)C[C@@]3(C)C[C@@H]23)c2ccc(-c3cnc(C)nc3)cc12` [Compound 630, (1R,3S,5R)-2-(2-(3-acetyl-5-(2-methylpyrimidin-5-yl)-1H-indazol-1-yl)acetyl)-N-(2-fluoro-3-(trifluoromethoxy)phenyl)-5-methyl-2-azabicyclo[3.1.0] hexane-3-carboxamide], under setting [2], the 50% inhibitory concentration (IC50) was below 1 µM. In the case of `CC(=O)c1nn(CC(=O)N2[C@@H]3C[C@@H]3C[C@H]2C(=O)Nc2cncc(Cl)n2)c2ccc(-c3cnc(C)nc3)cc12` [Compound 375, (1R,3S,5R)-2-(2-(3-Acetyl-5-(2-methylpyrimidin-5-yl)-1H-indazol-1-yl)acetyl)-N-(6-chloropyrazin-2-yl)-2-azabicyclo[3.1.0]hexane-3-carboxamide], the IC50 under setting [3] is below 1 µM. As for `CC(=O)c1nn(CC(=O)N2C[C@H](F)C[C@H]2C(=O)Nc2cccc(Br)c2F)c2ccc(-c3cnc(C)nc3)cc12` [Compound 273, (2S,4R)-1-(2-(3-acetyl-5-(2-methylpyrimidin-5-yl)-1H-indazol-1-yl)acetyl)-N-(3-bromo-2-fluorophenyl)-4-fluoropyrrolidine-2-carboxamide], the 50% inhibitory concentration (IC50) under setting [4] is below 1 µM. For the compound `CC(=O)c1cn(CC(=O)N2C[C@H](F)C[C@H]2C(=O)Nc2ccc3ccccc3c2)c2ccc(-c3ccnnc3)cc12` [Compound 110, (2S,4R)-1-(2-(3-acetyl-5-(pyridazin-4-yl)-1H-indol-1-yl)acetyl)-4-fluoro-N-(naphthalen-2-yl)pyrrolidine-2-carboxamide], under setting [1], the IC50 was above 10 µM. With `CC(=O)c1nn(CC(=O)N2C[C@H](F)C[C@H]2C(=O)Nc2ccn(CC(F)(F)F)n2)c2ccc(-c3cnc(N)nc3)cc12` [Compound 558, (2S,4R)-1-(2-(3-Acetyl-5-(2-aminopyrimidin-5-yl)-1H-indazol-1-yl)acetyl)-4-fluoro-N-(1-(S2,2,2-trifluoroethyl)-1H-pyrazol-3-yl)pyrrolidine-2-carboxamide], the IC50 under setting [2] is below 1 µM.

`CC(=O)c1nn(CC(=O)N2C[C@@H]3C[C@@H]3[C@H]2C(=O)Nc2nc(Br)ccc2C)c2ccc(-c3cnc(C)nc3)cc12` [Compound 605, (1S,2S,5R)-3-(2-(3-Acetyl-5-(2-methylpyrimidin-5-yl)-1H-indazol-1-yl)acetyl)-N-(6-bromo-3-methylpyridin-2-yl)-3-azabicyclo[3.1.0]hexane-2-carboxamide]: the IC50 under setting [2] was below 1 µM. Turning to `CC(=O)c1cn(CC(=O)N2[C@@H]3C[C@@H]3C[C@H]2C(=O)Nc2cncc(Br)n2)c2ccc(-c3cnc4cc(C)nn4c3)cc12` [Compound 331, (1R,3S,5R)-2-(2-(3-acetyl-5-(2-methylpyrazolo[1,5-a]pyrimidin-6-yl)-1H-indol-1-yl)acetyl)-N-(6-bromopyrazin-2-yl)-2-azabicyclo[3.1.0] hexane-3-carboxamide], the IC50 under setting [4] was below 1 µM.

In the case of `CC(=O)c1nn(CC(=O)N2CC[C@H]2C(=O)Nc2cccc(C)n2)c2ccc(-c3ccc4ccccc4c3)cc12` [Compound 587, (S)-1-(2-(3-Acetyl-5-(naphthalen-2-yl)-1H-indazol-1-yl)acetyl)-N-(6-methylpyridin-2-yl)azetidine-2-carboxamide], the half-maximal inhibitory concentration (IC50) under setting [2] was above 10 µM.

As usually defined, the IC50 is the concentration that inhibits the measured activity by half.
